This is an account of results in ChEMBL document CHEMBL1201862, “PubChem BioAssay data set” (2004).

In assay [1] the target is Glutathione-S-transferase (Schistosoma japonicum, UniProt Q26513). Kind of assay: biotin-GST/anti-GST TR-FRET signal inhibitors, dose response, artefact control for Vif-APOBEC3G degradation inhibitor project, biochemical (AID 1117362). The class given is functional. (TR-FRET usually uses a lanthanide donor and a delayed reading to cut background.)
Assay [2] is described as follows: inhibitors of Vif binding to APOBEC3G peptide, primary screen, biochemical, TR-FRET, GST-Vif 1-94, biotin-A3G peptide, dose response retest (AID 1117319).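 Further: TR-FRET signal of purified GST-Vif binding a biotinylated A3G peptide; inhibitors lower the FRET signal by blocking Vif and A3G binding.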 The class given is functional.
Assay [3] can be described thus: cytotoxicity dependent on PAX8, dose response, cell-based, plate reader, dry powder (AID 743049). It is filed as functional.
A short description of assay [4]: PAX5 activity inhibitors, dose response, selectivity assay for PAX8 inhibitor project, cell-based, plate reader, dry powder samples (AID 743047).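 Further: HEK293 cells carrying a Pax5 driven CD19 promoter luciferase reporter; potency of inhibitors that lower reporter luminescence.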 It is filed as functional.
The nature of assay [5]: cytotoxicity in OVCAR4 cells, dose response, cytotoxicity control for PAX8 inhibitor project, cell-based, plate reader, dry powder, SA11 (AID 743150). The class given is functional. Conditions: OVCAR-4.
For another assay, the target named is Paired box protein Pax-8 (Homo sapiens, UniProt Q06710). Kind of assay: inhibitors of PAX8-driven TPO luciferase reporter, dose response, RMG-I cells, cherry-pick (AID 687027).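 Further: luciferase reporter driven by Pax8 target thyroperoxidase promoter measured by SteadyGlo luminescence.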 The class given is functional, cell-based. A general note: In a reporter assay the amount or activity of a reporter protein is the signal.
Chain of Paired box protein Pax-8 (Q06710 whole entry): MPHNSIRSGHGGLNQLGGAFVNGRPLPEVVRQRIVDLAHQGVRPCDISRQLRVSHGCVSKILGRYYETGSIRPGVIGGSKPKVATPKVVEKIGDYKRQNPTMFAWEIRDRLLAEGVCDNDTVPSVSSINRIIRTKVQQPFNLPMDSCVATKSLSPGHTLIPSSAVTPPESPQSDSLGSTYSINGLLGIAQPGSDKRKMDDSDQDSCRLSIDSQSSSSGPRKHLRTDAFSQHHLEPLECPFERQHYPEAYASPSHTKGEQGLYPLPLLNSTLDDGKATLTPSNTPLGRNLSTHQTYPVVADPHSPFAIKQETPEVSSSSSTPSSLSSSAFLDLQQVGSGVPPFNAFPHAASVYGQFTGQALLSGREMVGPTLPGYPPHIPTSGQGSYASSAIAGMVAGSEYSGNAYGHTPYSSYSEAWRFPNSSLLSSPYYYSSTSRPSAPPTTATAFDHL
Assay [6] is described as follows: PAX2 cell-based inhibition, dose response, selectivity assay for PAX8 inhibitor project, plate reader, dry powder samples (AID 743048).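 Further: HEK293 cells carrying a WT1 promoter luciferase reporter driven by expressed Pax2; potency is for inhibition of Pax2 driven reporter signal.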 It is filed as functional.
Assay [7] is described as follows: inhibitors of clade B AD8 Env fusion, dose response, cell-based, cherry-pick (AID 652062).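 Further: luciferase signal from cell-cell fusion driven by HIV-1 clade B AD8 Env; potency is for inhibitors of fusion seen as a drop in luminescence.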 The class given is functional.
A short description of assay [8]: cytotoxicity in COV434 cells, dose response, cytotoxicity control for PAX8 inhibitor project, cell-based, plate reader, dry powder, SA7 (AID 743145). It is filed as functional.
A short description of assay [9]: cytotoxicity in OV-90 ovarian cancer cells, dose response, PAX8 inhibitor project, cell-based, plate reader, dry powder, SA8 (AID 743149). It is filed as functional.
Assay [10] can be described thus: inhibitors of HIV Env-driven cell fusion, dose response, cherry-pick (AID 652057). The class given is functional, cell-based.
Assay [11] in a line: inhibitors of intracellular T. cruzi replication, confirmation, NIH3T3 host cells, beta-gal luminescence (AID 2044).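 Further: intracellular parasites grown in NIH/3T3 mouse fibroblasts as host cells; luminescent beta-galactosidase reporter signal from transgenic T. cruzi replicating inside host cells; inhibitors lower the luminescence signal.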 It is filed as functional, cell-based.
Assay [12] has as its system Vero. Kind of assay: host cell cytotoxicity of antiviral hits, dose response, cytotoxicity control for West Nile virus antiviral project, secondary assay (AID 1650). It is filed as functional. Conditions: Chlorocebus sabaeus.
The subject of assay [13] is BJ. Description: cytotoxicity toward BJ-TERT-LT-ST fibroblasts, dose response, cell-based, RAS-independent, luminescence (AID 1935).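 Further: BJ fibroblasts immortalized with TERT plus LT and ST oncogenes.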 It is filed as functional. Conditions: Homo sapiens.
A short description of assay [14]: cells. It is filed as functional, cell-based.
The nature of assay [15]: cells. The class given is functional, cell-based. The source holds these as a separate data set.
Assay [16] deals with BJ. Description: cytotoxicity toward BJ-TERT fibroblasts, dose response, cell-based, RAS-independent, luminescence (AID 1933). The class given is functional. Conditions: Homo sapiens.
Assay [17] in a line: cytotoxicity toward NIH3T3 fibroblasts, dose response, counter-screen, cell-based, ATP luminescence, mouse fibroblasts (AID 2010).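 Further: cells exposed to compound for about 90 hours before reading.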 The class given is functional. (The purpose of a counterscreen is to sort out artefacts and off-target activity.)
Assay [18] is described as follows: cytotoxicity toward DRD oncogenic fibroblasts, dose response, cell-based, non-viral oncogenic, luminescence (AID 1934). It is filed as functional. Conditions: Homo sapiens.
Assay [19] deals with Vero. Kind of assay: cells. It is filed as functional, cell-based. Conditions: Chlorocebus sabaeus.
A further assay has as its system Streptococcus. Kind of assay: Group A Streptococcus viability loss, dose response, counter-screen for streptokinase expression inhibitor project, luminescence, BacTiterGlo (AID 1915).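 Further: potency for reduction of bacterial viability or growth.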 The class given is functional, organism-based.
The subject of assay [20] is BJ. Description: cells. The class given is functional, cell-based. Conditions: Homo sapiens.
Assay [21] relates to Streptococcus sp. 'group A'. Description: growth inhibition of control SK(-) GAS strain, dose response, counter-screen for streptokinase expression inhibitor project, luminescence, kanamycin, BacTiterGlo, confirmation (AID 1900). The class given is functional, organism-based.
The nature of assay [22]: RKO cell viability reduction, dose response, CellTiter-Glo luminescence (AID 1117322). It is filed as functional.
Assay [23] can be described thus: cytotoxicity toward HT-29 cells – cell-based, CellTiter-Glo luminescence, IC50, dose response (AID 1117330). The class given is functional.
A short description of assay [24]: cytotoxicity toward HCT116 cells – cell-based, CellTiter-Glo luminescence, IC50, dose response (AID 1117332). The class given is functional. Conditions: HCT-116.
A short description of assay [25]: Concentration-dependent survival of SW480 colon cancer line, luminescence detection with CellTiter-Glo, half-maximal inhibitory concentration (AID 1117338). The class given is functional.
Assay [26] is described as follows: CellTiter-Glo luminescent dose response of DLD-1 viability loss (AID 1117352). It is filed as functional.
Assay [27] can be described thus: HCT116 cell viability decrease, GSK3B pretreatment – CellTiter-Glo, IC50, dose response (AID 1117339). Conditions: HCT-116. The class given is functional.
Assay [28] in a line: SNU-C1 cell viability reduction, dose response, CellTiter-Glo luminescence (AID 1117323). The class given is functional, cell-based.
Assay [29] is described as follows: cytotoxicity toward Colo320 cells – cell-based, CellTiter-Glo luminescence, IC50, dose response (AID 1117334). It is filed as functional. Conditions: COLO 320.
The nature of assay [30]: HeLa 2N DNA content increase, dose response, cell-based, IC50 (AID 1117349). The class given is functional.
Assay [31] is described as follows: HeLa 4N DNA content increase, dose response, cell-based, IC50 (AID 1117351). It is filed as functional.

Calls of active or inactive are those of the source.

Chain of Glutathione-S-transferase (Q26513 whole entry): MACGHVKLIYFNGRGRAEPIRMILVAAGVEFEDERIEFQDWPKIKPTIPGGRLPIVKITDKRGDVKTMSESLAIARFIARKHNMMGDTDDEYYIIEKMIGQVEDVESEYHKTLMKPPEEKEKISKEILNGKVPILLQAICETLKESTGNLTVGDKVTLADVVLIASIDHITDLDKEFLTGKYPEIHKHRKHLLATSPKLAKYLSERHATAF

The IC50 is the concentration that gives 50% inhibition. For the molecule `O=C(COC(=O)C12CC3CC(CC(Br)(C3)C1)C2)Nc1ccc2[nH]c(O)nc2c1`, the figures for the IC50 in assay [1] and in [2] were 73.5 µM (active) and > 100 µM (active), respectively.
As usually defined, the AC50 is the concentration giving half of the maximal activity seen. Turning to `N#C[C@@H]1[C@H](c2ccc(-c3ccccc3F)cc2)[C@@H](CO)N1C(=O)Cc1ccccc1`, the AC50 was 20.3 µM (active) in assay [3]; 26.2 µM (active) in assay [4]; 30.4 µM (active) in assay [5]; 17.3 µM (active) on Paired box protein Pax-8; 23.8 µM (active) in assay [6]; 19.8 µM (active) in assay [7]. Also, the AC50 in assay [8] was > 70 µM (inactive); in assay [9], 56.2 µM (active); in [10], 35 µM (active).
The EC50 is the concentration that produces a half-maximal response. As a reminder, the CC50 is the concentration that lowers cell viability or growth by half. As for `Oc1nc(-c2ccccn2)nc2sc(-c3ccccc3)cc12`, the EC50 was 0.216 µM (active) in assay [11]; 15.6 µM (inconclusive) with BJ [13]; 16.6 µM (active) in “cells [14]”; 4.87 µM (active) in the assay “cells [15]”; 17.6 µM (active) in the assay with BJ [16]; 1.27 µM (active) in [17]. Besides, the EC50 in assay [18] was 121 µM (inconclusive); in the assay on Streptococcus it was 13.2 µM (active); in the assay with BJ [20] it was 16.2 µM (active); in [21] it was 0.571 µM (active). Besides, the CC50 in the assay with Vero [12] is 2.08 µM (active). Further, the IC50 with Vero [19] is 7 µM (active).
As for `C[C@H](O)CN(C)C`, the IC50 in assay [22], in assay [23], in assay [24], in assay [25], in assay [26] and in assay [27] was > 20 µM (inactive) throughout. Besides, the IC50 in [28] and in [29] was > 20 µM (inactive) throughout.
For the molecule `CCCCCCCCCCCC[N+](C)(C)Cc1ccccc1`, the IC50 in [22] was 3.07 µM (active); in assay [23], 0.465 µM (active); in assay [24], 1.96 µM (active); in assay [25], 7.95 µM (inactive); in assay [26], 0.738 µM (active); in [30] it was > 10 µM (inactive). Besides, the IC50 in assay [27] is > 20 µM (inactive); in assay [31], > 10 µM (inactive); in [28], 0.02 µM (active); in assay [29], 8.99 µM (inactive).
With `NCCNc1ccc(NCCN)c2c1C(=O)c1ccncc1C2=O` [PIXANTRONE], the IC50 is 0.042 µM (active) in [30] and 0.0483 µM (active) in assay [31].
